Tests used:
eGFP C70M S147C [1] = target: T1, eGFP C70M S147C (Aequorea victoria, UniProt P42212, C70M/F64L/H231L/S147C/S65T); test: Tandem-mass spectrometry of tryptically digested labelled eGFP; conditions: 10 eq. phosphinate, PBS pH 7.4, 10% DMSO
T1 construct: protease cleavage site highlighted with subscripts; His-tag (N); protease cleavage site (N); made in house
Procedure: At first phosphinate-1 was reacted with an eGFP mutant containing a single addressable Cys (eGFP C70M S147C). Using 10 eq. phosphinate in PBS pH 7.4 containing 10% DMSO as a co-solvent, the reaction reached completion after 30 minutes (FIG. 5d).
1 in PBS (30 min, r.t.) followed by purification via 0.5 mL Zeba™ Spin Desalting Columns with 7K MWCO (Thermo Fisher Scientific, USA) into phosphate-buffer (20 mM, pH 7.5). Complete labeling was verified via intact-protein MS.

eGFP C70M S147C [2] = target: T1, eGFP C70M S147C; test: Second-order rate constant of the reaction with eGFP, intact protein-MS; conditions: one equivalent GFP, Tris-buffer (pH 8.3), 90 μM, room-temperature
Procedure: Subsequently, this new compound-class was compared with other Cys-reactive electrophiles in terms of reaction kinetics. The estimation of reaction-kinetics is particularly challenging for bis-reactive reagents because the second thiol addition interferes with the analysis. […] Consequently, 2 was reacted with one equivalent GFP in Tris-buffer (pH 8.3) at a concentration of 90 μM at room-temperature.
Determination of the second-order rate constant of the reaction between eGFP (C70M S147C) and phosphinate 2. […] Reactions were carried out in triplicate. 90 μl eGFP (0.1 mM) were mixed with 10 μl of a 0.9 mM solution of phosphinate 2 in DMSO. Samples were drawn after 60, 90, 150, 210 and 300 minutes and analyzed via intact protein-MS. […] Calculated by the intensity of the deconvoluted mass in relation to the internal standard eGFP (C70M). […] The slope corresponds to the second order rate constant. Shown are mean and error of three independent measurements.

[3] = Second-order rate constant of the reaction with glutathione, fluorescent HPLC; conditions: 1 eq. glutathione (0.5 mM), 50 mM ABC buffer, 1 mM EDTA, pH 8.5
Procedure: The second-order rate constant of the reaction between glutathione and EDANS-phosphinates CS265 and CS266 was determined according to the following procedure: The EDANS-phosphinate was reacted with 1 eq. of glutathione (0.5 mM) in the presence of 50 mM ABC buffer (ammonium bicarbonate buffer) and 1 mM EDTA at pH 8.5. The reactions were performed in a volume of 0.1 ml. The first sample (t=0) was drawn before the addition of glutathione. Samples were taken after 1, 2, 5, 12, 22 and 35 min (CS266) or after 30, 60, 120, 240 and 1440 min (CS265). Samples were drawn in a volume of 10 μl and immediately diluted into 200 μl of 50 mM NaOAc buffer at pH 3.5, to stop the reaction. Those samples were subjected to fluorescent HPLC analyses, injecting 50 μl each.

T1 sequence (P42212 with tags, fused parts or gaps F64L/S65T/C70M/S147C/H231L): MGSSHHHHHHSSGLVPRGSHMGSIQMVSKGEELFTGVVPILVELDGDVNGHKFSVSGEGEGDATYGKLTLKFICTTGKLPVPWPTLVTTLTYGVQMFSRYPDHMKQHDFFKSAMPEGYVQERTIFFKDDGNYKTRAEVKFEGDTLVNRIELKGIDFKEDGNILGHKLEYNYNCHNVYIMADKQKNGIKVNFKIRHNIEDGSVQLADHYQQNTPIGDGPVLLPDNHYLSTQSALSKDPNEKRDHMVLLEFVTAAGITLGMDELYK

With `C#CP(=O)(C#C)OCC` [compound 1, ethyl diethynyl phosphinate] the “amino acids modified (MS/MS)” value (eGFP C70M S147C [1]) was “no amino acid other than Cys was modified”.

Compound `C#CCCOP(=O)(C#C)C#C` [compound 2, but-3-yn-1-yl-diethynylphosphinate] has a second-order rate constant (eGFP C70M S147C [2]) of about 0.47 M⁻¹ s⁻¹.

In the case of `C#CP(=O)(OCC)c1cn(CCC(=O)NCCNc2cccc3c(S(=O)(=O)O)cccc23)nn1` (stereo not drawn) [CS266, EDANS-1,2,3-triazol-ethyl-ethynylphosphinate], the “reaction kinetics relative to CS265” value [3] is reported as “roughly ten times faster than with CS265”.

Source: patent US20240350655A1, “THIOL-CONJUGATION WITH UNSATURATED PHOSPHORUS(V) COMPOUNDS” (FORSCHUNGSVERBUND BERLIN E.V., priority 2021, published 2024)
